What was measured:
[1] = tested on: Human Bladder cancer cell, T24; test: Relative cell viability CCK-8, T24; assay type: cell-based; conditions: for Relative cell viability (%), T24: 48 hours
Method in brief: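 Cells were seeded, stabilized 24 h at 37 °C, 5% CO2, then exposed to compound at several concentrations. Viability was measured by CCK-8 after a 2 h incubation and expressed relative to untreated (DMSO) cells set at 100%.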

[2] = tested on: BALB/c mice with induced psoriasis; test: Psoriasis animal model (Aldara cream, Imiquimod); assay type: in vivo, mouse
Protocol: To verify the therapeutic effect of the compound according to the present invention on psoriasis, a psoriasis animal model was established as follows, and the compound according to the present invention was administered to evaluate the alleviation of skin lesions and changes in immune cell patterns.
For the establishment of the psoriasis animal model, BALB/c mice (7 weeks old, female, 20 g) were purchased from HanabioTech Co., Ltd. and acclimatized to the rearing environment for one week.
Subsequently, the hair on the mouse back was shaved using a hair removal device for the first time, and then completely shaved using a depilatory cream (Nicrin Cream (80% thioglycolic acid, Il Dong Pharmaceutical)) for the second time. The mice were then kept for 24 hours to confirm the absence of skin damage.
[Normal control group (Normal, Not Treatment), psoriasis-induced control group (Psoriasis, Not Treatment), psoriasis-induced vehicle control group (Psoriasis, Vehicle), experimental group (GO85, GO86, GO88, GO89, PBK-2024-010, PBK-2024-026, PBK-2025-002, PBK-2025-004, PBK-2025-016, PBK-2025-017, PBK-2025-023)]. […]
Body weights of mice in each group were measured on days 1, 4, and 8 after the start of injection and psoriasis induction. […]
To evaluate the therapeutic effect in a psoriasis-induced mouse model, the PASI (Psoriasis Area and Severity Index) score was measured.
The PASI score is based on three criteria: erythema, scaling, and skin thickness, each scored from 0 (none) to 4 (severe). […]
Observations were conducted daily at the same time, and the same observer visually assessed each criterion and recorded the scores, with the results presented in FIG. 13. […]
All samples were measured in duplicate, and the absorbance was measured at 450 nm using a microplate reader.

[3] = tested on: Human Colorectal Carcinoma cell line, HCT-116; test: Relative cell viability CCK-8, HCT-116; assay type: cell-based; conditions: 48 hours; for viability at 1 µM / viability at 10 µM / viability at 30 µM / viability at 50 µM: Homo sapiens, HCT-116
Protocol: Human-derived breast cancer cell line MCF-7, human-derived lung cancer cell line A549, human-derived colorectal cancer cell line HCT-116, human pancreatic cancer cell line AsPC-1, glioblastoma cell line A172, and melanoma cell line Malme-3M were obtained from the Korean Cell Bank. gastric cancer cell line SNU-719, and bladder cancer cell line T24 were cultured in RPMI-1640 medium containing 10% FBS.
(§1) Following stabilization, the cells were harvested using Trypsin-EDTA treatment, centrifuged at 1,200 rpm for 3 minutes, the supernatant was removed, and the cells were resuspended in the same medium. They were then seeded into a 96-well plate (Costar 96-well cell culture plate, Corning) at 100 μL per well, and the conditions were adjusted as indicated in Table 5.
(§2) The cells were cultured in a 5% CO2 incubator at 37° C. for 24 hours, and after stabilization of the cells, each plate was washed with 200 μL of PBS per well and treated with 50 μL of culture medium per well.
(§3) After that, 10 μL of CCK-8 was added to each well, and the plate was incubated again at 37° C. in a 5% CO2 incubator for 2 hours.
(§4) In other words, when the survival rate of untreated cells (DMSO) is set at 100%, the relative cell survival rate in each group treated with the drug at different concentrations is indicated.

[4] = tested on: Human Osteosarcoma, Saos-2; test: Relative cell viability CCK-8, Saos-2; assay type: cell-based; conditions: for Relative cell viability (%), Saos-2: 48 hours
Protocol: Human-derived head and neck cancer cell line Fadu and osteosarcoma cell line Saos-2 were cultured in MEM medium containing 10% FBS, 100 U/mL penicillin, and 100 μg/mL streptomycin.
as §1, §2, §3, §4

[5] = tested on: T cells isolated from mouse spleens; test: T cell proliferation inhibition (CFSE flow cytometry, anti-CD3/anti-CD28 stimulation); assay type: cell-based; conditions: mouse spleen T cells, 3 days; for inhibition at 0.01 µM / inhibition at 0.1 µM / inhibition at 1 µM / inhibition at 10 µM / inhibition at 30 µM / inhibition at 50 µM: Mus musculus, T-cell, 72 h, read-out: Proliferation inhibition rate (%)
Method in brief: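 Splenic T cells from 7-week-old C57BL/6 mice were MACS-isolated, CFSE-labelled, seeded at 2×10^5 cells/well and activated with anti-CD3/anti-CD28 (0.5 μg/mL each). Compound at 10 nM–50 μM (six levels, triplicate) was present for 3 days at 37 °C before flow cytometric readout of proliferation inhibition rate.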

CC1(C)CN(CCCCCCCCCCCCC(=O)Nc2nc(N)c3[nH]cnc3n2)CCO1 [Compound 11, 12-[4-(2,2-dimethylmorpholin-4-yl)]dodecyl-N-(6-aminopurine-2-yl) carboxamide]
Relative cell viability (%), T24 ([1]; 1 μM): 28.15% | Relative cell viability (%), T24 ([1]; 10 μM): 31.17% | Relative cell viability (%), T24 ([1]; 30 μM): 30.42% | Relative cell viability (%), T24 ([1]; 50 μM): 29.34% | Efficacy in improving dermatological symptoms [2]: excellent efficacy in improving dermatological symptoms | Relative cell viability (%), HCT-116 ([3]; 1 μM): 21.36% | Relative cell viability (%), HCT-116 ([3]; 10 μM): 24.91% | Relative cell viability (%), HCT-116 ([3]; 30 μM): 24.78% | Relative cell viability (%), HCT-116 ([3]; 50 μM): 25.26% | Relative cell viability (%), Saos-2 ([4]; 1 μM): 36.73% | Relative cell viability (%), Saos-2 ([4]; 10 μM): 24.98% | Relative cell viability (%), Saos-2 ([4]; 30 μM): 16.00% | Relative cell viability (%), Saos-2 ([4]; 50 μM): 36.73% | Proliferation inhibition rate (%) ([5]; compound 10 nM): −25.47% | Proliferation inhibition rate (%) ([5]; compound 100 nM): 100.00% | Proliferation inhibition rate (%) ([5]; compound 1 μM): 100.00% | Proliferation inhibition rate (%) ([5]; compound 10 μM): 100.00% | Proliferation inhibition rate (%) ([5]; compound 30 μM): 100.00% | Proliferation inhibition rate (%) ([5]; compound 50 μM): 100.00%

Nc1nc(NC(=O)CCCCCCCCCCCCN2CCN(CCO)CC2)nc2nc[nH]c12 [Compound 15, 12-[4-(2-hydroxyethyl)piperazin-1-yl]dodecyl-N-(6-aminopurine-2-yl) carboxamide]
viability at 1 µM ([1]; Homo sapiens, 48 h, 1 μM): 7.92% | viability at 10 µM ([1]; Homo sapiens, 48 h, 10 μM): 9.29% | viability at 30 µM ([1]; Homo sapiens, 48 h, 30 μM): 9.57% | viability at 50 µM ([1]; Homo sapiens, 48 h, 50 μM): 8.75% | Efficacy in improving dermatological symptoms [2]: excellent efficacy in improving dermatological symptoms | viability at 1 µM ([3]; 1 μM): 12.1% | viability at 10 µM ([3]; 10 μM): 11.5% | viability at 30 µM ([3]; 30 μM): 10% | viability at 50 µM ([3]; 50 μM): 9.08% | inhibition at 0.01 µM ([5]; compound 10 nM): -0.4% | inhibition at 0.1 µM ([5]; compound 100 nM): 100% | inhibition at 1 µM ([5]; compound 1 μM): 100% | inhibition at 10 µM ([5]; compound 10 μM): 100% | inhibition at 30 µM ([5]; compound 30 μM): 100% | inhibition at 50 µM ([5]; compound 50 μM): 100%

Nc1ncccc1C(=O)NCCCCCCCCCCCCN1CCNCC1 [Compound 5, 2-Amino-N-(12-(piperazin-1-yl)dodecyl)-nicotinamide]
Relative cell viability (%), T24 ([1]; 1 μM, listed as GO78, 1 µM): 28.34% | Relative cell viability (%), T24 ([1]; 10 μM, listed as GO78, 10 µM): 30.42% | Relative cell viability (%), T24 ([1]; 30 μM, listed as GO78, 30 µM): 29.73% | Relative cell viability (%), T24 ([1]; 50 μM, listed as GO78, 50 µM): 29.32% | Relative cell viability (%), Saos-2 ([4]; 1 μM, listed as GO78, 1 µM): 28.36% | Relative cell viability (%), Saos-2 ([4]; 10 μM, listed as GO78, 10 µM): 33.69% | Relative cell viability (%), Saos-2 ([4]; 30 μM, listed as GO78, 30 µM): 19.77% | Relative cell viability (%), Saos-2 ([4]; 50 μM, listed as GO78, 50 µM): 2.60% | inhibition at 0.1 µM ([5]; compound 100 nM): 100% | inhibition at 1 µM ([5]; compound 1 μM): 100% | inhibition at 10 µM ([5]; compound 10 μM): 100% | inhibition at 30 µM ([5]; compound 30 μM): 100% | inhibition at 50 µM ([5]; compound 50 μM): 100% | Proliferation inhibition rate (%) ([5]; compound 10 nM, listed as GO78, 0.01 µM): −27.49%

Nc1ncccc1C(=O)NCCCCCCCCCCCCN1CCNCC1 [Compound 14, 2-Amino-N-(12-(piperazin-1-yl)dodecyl)nicotinamide]
Relative cell viability (%), T24 ([1]; 1 μM, listed as GO88, 1 µM): 9.88% | Relative cell viability (%), T24 ([1]; 10 μM, listed as GO88, 10 µM): 11.01% | Relative cell viability (%), T24 ([1]; 30 μM, listed as GO88, 30 µM): 9.22% | Relative cell viability (%), T24 ([1]; 50 μM, listed as GO88, 50 µM): 7.47% | Efficacy in improving dermatological symptoms [2]: excellent efficacy in improving dermatological symptoms | viability at 1 µM ([3]; 1 μM): 14.2% | viability at 10 µM ([3]; 10 μM): 12.3% | viability at 30 µM ([3]; 30 μM): 9.38% | viability at 50 µM ([3]; 50 μM): 7.61% | Relative cell viability (%), Saos-2 ([4]; 50 μM, listed as GO88, 50 µM): 0.00% | viability at 1 µM ([4]; Homo sapiens, SAOS-2, 48 h, 1 μM): 47.1% | viability at 10 µM ([4]; Homo sapiens, SAOS-2, 48 h, 10 μM): 34.2% | viability at 30 µM ([4]; Homo sapiens, SAOS-2, 48 h, 30 μM): 16.3% | Proliferation inhibition rate (%) ([5]; compound 10 nM, listed as GO88, 0.01 µM): 17.83% | Proliferation inhibition rate (%) ([5]; compound 10 μM, listed as GO88, 10 µM): 85.09% | Proliferation inhibition rate (%) ([5]; compound 30 μM, listed as GO88, 30 µM): 98.95%

Nc1ncccc1C(=O)NCCCCCCCCCCCCN1CCOCC1 [Compound 2, 2-Amino-N-(12-morpholin-4-yl-dodecyl)-nicotinamide]
inhibition at 0.01 µM ([5]; compound 10 nM): -1.47% | inhibition at 0.1 µM ([5]; compound 100 nM): 0% | inhibition at 1 µM ([5]; compound 1 μM): 0% | inhibition at 10 µM ([5]; compound 10 μM): 100% | inhibition at 30 µM ([5]; compound 30 μM): 100% | inhibition at 50 µM ([5]; compound 50 μM): 100%

Nc1ncccc1C(=O)NCCCCCCCCCCCCF [Compound 57, 2-Amino-N-(12-fluoro-dodecyl)-nicotinamide]
inhibition at 30 µM ([5]; compound 30 μM): 100% | inhibition at 50 µM ([5]; compound 50 μM): 100% | Proliferation inhibition rate (%) ([5]; compound 10 nM): −9.32% | Proliferation inhibition rate (%) ([5]; compound 100 nM): −5.28% | Proliferation inhibition rate (%) ([5]; compound 1 μM): 16.20%

Source: patent publication US20260183274A1, “PDK1 REGULATORY COMPOUND AND COMPOSITION CONTAINING THE SAME” (PROVIBIO CO., LTD., priority 2024, published 2026)
